Results reported in US9157062B2, “Compositions and methods for promoting the generation of PDX1+ pancreatic cells” (President and Fellows of Harvard College, priority 2008, dated 2015).

Tests used:
Assay type in all cases: cell-based, human
[1] = system: ERK1/2 phosphorylation at Thr-202/Tyr-204; assay: Western blot of ERK1/2 phosphorylation; settings: 300 nM ILV, 1 hour, compared to DMSO-treated control
Method: Cells were lysed in 1×RIPA lysis buffer (Upstate Biotechnology) with 1% protease inhibitor mixture (Sigma)/1% phosphatase inhibitor mixture (Sigma)/1% phosphatase inhibitor mixture II (Sigma). Proteins were separated by 4-20% Tris-Glycine SDS/PAGE (Biorad) under denaturing conditions and transferred to a nitrocellulose membrane. After blocking with 5% nonfat milk in DPBS, the membrane was incubated with primary antibodies against phospho-ERK1/2 (Thr-202/Tyr-204) (1:2,000, Sigma) and ERK1/2 (1:1,000, Cell Signaling) overnight at 4° C. The membrane was then washed, incubated with anti-mouse/rabbit peroxidase-conjugated affinity-purified secondary antibody (1:1000, Cell Signaling) at room temperature for 1 hour, and developed by SuperSignal chemiluminescence (Pierce).
Experiments were performed to monitor downstream signaling by PKC. Since ERK signaling has been reported to be regulated by PKC (Ueda et al., 1996), the activity of ERK signaling was examined with Western blotting to detect the phosphorylation of ERK1/2 at Thr-202/Tyr-204. After 1 hour treatment with 300 nM ILV, the phosphorylation of ERK1/2 increased compared to the DMSO-treated control (FIG. 8a). In addition, MEK/ERK inhibitors, PD098059 or U0126, both block ILV's effect. […]

HUES8-derived population [2] = assay: Ki67 staining for proliferation of Pdx1+ cells; settings: 300 nM ILV, 4 days
Method: (§1) Cells were fixed with 10% formalin solution (Sigma) for 20 min at room temperature. Immunostaining was carried out with standard protocols. The following primary antibodies were used: goat anti-Pdx1 (1:500; R&D system); rabbit anti-FOXA2 (1:500; Upstate); rabbit anti-HNF6 (1:200; Santa Cruz Biotech); guinea pig anti-insulin (1:1000; Dako); rabbit anti-c-peptide (1:500; Linco); rabbit anti-amylase (1:200, Sigma); goat anti-HNF1β (1:100, Santa Cruz Biotech); and biotinylated DBA (1:400; Vector Lab). Alexa-488-, Alexa-555, and Alexa-647-conjugated donkey antibodies against mouse, rabbit, guinea pig and goat, and Pacific Blue conjugate-streptavidin (Invitrogen) were used at 1:300 dilution.
The results provided above are consistent with (1) ILV promotion of the proliferation or replication of the few pancreatic progenitors present in the starting population and with (2) differentiation induction of definitive endoderm by the compound. To distinguish between these possibilities, a HUES8-derived population was treated with 300 nM ILV for 4 days and analyzed for proliferation by staining with the antibody against Ki67 (marker for proliferating cells).

[3] = system: HUES9-derived population (Pdx1+ cells); assay: High throughput screen for compounds increasing Pdx1+ cells
Method: To generate a starting population, HUES cells were cultured on MEF feeder cells until 80-90% confluent, then treated with 25 ng/ml Wnt3a (R&D systems)+100 ng/ml Activin A (R&D systems) in advanced RPMI (A-RPMI, Invitrogen) supplemented with 1×L-Glu and 1×PS for 1 day, and then 100 ng/ml Activin A in A-RPMI supplemented with 1×L-Glu, 1×PS and 0.2% FBS (Invitrogen). Two days later, the media was changed to 50 ng/ml FGF10 (R&D systems)+0.25 μM KAAD-CYC (Calbiochem) in A-RPMI supplemented with 1×L-Glu, 1×PS and 2% FBS and maintained for additional 2 days. Cells were then transferred to 50 ng/ml FGF10+0.25 μM KAAD-CYC+2 μM RA (Sigma) in DMEM supplemented with 1×L-Glu, 1×PS, 1×B27 (Invitrogen) and cultured for an additional 4 days. ILV was obtained from Axxora, KAAD-CYC, TPB, PMA, BISI, Gö 6983, U0126 and PD98059 were obtained from Calbiochem and RA were obtained from Sigma.
For a high throughput screen, the starting material was hESCs (HUES9 cells) that were induced to pancreatic lineage using a slightly modified version of previously published protocols (D'Amour et al., 2006; Jiang et al., 2007), as described in Example 1. After 9 days of stepwise differentiation, a heterogeneous population of cells was generated containing cells that stained strongly, weakly or not at all with a Pdx1 antibody. Any cell that stained with the Pdx1 staining antibody was counted as Pdx1^+ cells regardless of staining intensity. Together, the Pdx1^+ cells comprises 5.1±1.8% of the total cell number.
To carry out the screen, the cells were trypsinized and plated on 804G-coated 384-well plates at 6000 cells/well using chemically defined media (DMEM supplemented with 2 mM L-Glu, 1×PS, 1×B27). After overnight incubation, compounds were screened by adding them to provide a final concentration of 10 μM, 1 μM and 0.1 μM. Four days later, the cells were stained with Pdx1 antibody and the plates were analyzed with Opera high content screening system (PerkinElmer).
The wells in which the percentage of Pdx1^+ cells is higher than present at day 1 and higher than day 5 treated with DMSO were selected as primary hits. Compounds that increase both the number and percentage of Pdx1^+ cells were picked as primary hits. Eleven compounds produced hits. (FIG. 7, Table I in FIG. 9 and formulas in FIG. 10). These eleven compounds were (−)-Indolactam V (FIG. 1c and Compound I in Table 1) boldine (Compound II), rotenone (Compound III), ethopropazine hydrochloride (Compound IV), cedrelone (Compound V), prieurianin (Compound VI), strophanthidin (Compound VII), trimeprazine tartrate (Compound VIII), terconazole (Compound IX), dimethisoquin hydrochloride (Compound X), harmine hydrochloride (Compound XI).
as §1

HUES8-derived population [4] = assay: Illumina microarray of markers expressed in non-pancreatic tissues; settings: 300 nM ILV, 4 days
Method: cRNA samples were prepared with an Illumina TotalPrep RNA Amplification Kit (Ambion). Data was acquired with an Illumina beadstation 500 (Illumina) and analyzed with beadstudio (Illumina).
To further characterize the cells induced by ILV, beyond Pdx1^+ expression, multiple pancreatic lineage markers were examined by immunocytochemistry and qRT-PCR. More than 96% of the Pdx1^+ cells following ILV treatment show significant expression of other pancreatic progenitor markers, including FOXA2 and HNF6 (FIG. 4a). After ILV treatment, Pdx1, HNF6, Ptfla, Sox9, FOXA2 mRNAs level increase (FIG. 4b).

Substance: (−)-Indolactam V [ILV]
- phosphorylation of ERK1/2 [1]: increased
- Pdx1+ cells expressing Ki67 (HUES8-derived population [2]): no Pdx1^+ cells expressing Ki67
- primary hits (increase both the number and percentage of Pdx1+ cells) ([3]; HUES9-derived cells, 10 μM, 1 μM and 0.1 μM, four days): hits
- effective concentration ([3]; HUES9-derived cells, primary screen): ~1 µM
- percentage of Pdx1+ cells ([3]; HUES9-derived population, 1 μM ILV for 4 days (day 5)): 10.9±0.9%
- markers expressed in non-pancreatic tissues or organs (Sox7, Cdx2, Ces2, FABP2, AFP, albumin, BARX1, Troponin T, Sox2) (HUES8-derived population [4]): either decrease or do not significantly change
